Experimental data: patent publication US9469645B2, “Compounds and compositions for the treatment of parasitic diseases” (Novartis AG, priority 2009, dated 2016)

How the values were obtained:
3D7 P. falciparum strain = test: parasite proliferation assay in infected red blood cells (SYBR Green I); assay type: cell-based, Plasmodium falciparum; conditions: Plasmodium falciparum, 3D7, Erythrocyte, 3D7 strain; read-out: EC50 3D7 strain
Outline: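 P. falciparum 3D7 grown in O+ human erythrocytes to 3–8% parasitemia and exposed to compounds. Proliferation read as the increase in parasite DNA. Detection used SYBR Green I in saponin/triton-X/EDTA lysis buffer, with overnight lysis at room temperature.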

W2 strain [1] = test: parasite proliferation assay in infected red blood cells (SYBR Green I), W2 strain; assay type: cell-based, Plasmodium falciparum; conditions: Plasmodium falciparum, Erythrocyte
Text: (§1) Compounds of the invention can be assayed to measure their capacity to inhibit proliferation of parasitemia in infected red blood cells. The proliferation is quantified by the addition of SYBR Green I (INVITROGEN)® dye which has a high affinity for double stranded DNA.

W2 strain [2] = test: as above; assay type: cell-based; conditions: Erythrocyte
Text: as §1

Structure (SMILES)	EC50 (3D7 P. falciparum strain) [nM]	EC50 (W2 strain [1]) [nM]	EC50 (W2 strain [2]; Plasmodium falciparum) [nM]	EC50 (W2 strain [2]) [nM]
Cc1ccc(Nc2c(-c3ccncc3)nc3n2CCN(C(=O)C(C)(C)N)C3)cc1 [Compound 398]	2730	2680	–	–
Cc1ccc(Nc2c(-c3ccc(F)cc3)nc3n2CCN(C(=O)CNC(C)(C)C)C3)cc1 [Compound 399]	220	196	–	–
CN[C@@H](Cc1ccc(Cl)cc1)C(=O)N1CCn2c(nc(-c3ccc(F)cc3)c2Nc2ccc(C)cc2)C1 [Compound 400]	180	105	–	–
Cc1ccc(Nc2c(-c3ccc(F)cc3)nc3n2CCN(C(=O)[C@@H](N)CC2CC2)C3)cc1 [Compound 401]	20	12	–	–
Cc1ccc(Nc2c(-c3ccc(F)cc3)nc3n2CCN(C(=O)[C@@H](C)NCc2ccccc2)C3)cc1 [Compound 402]	120	122	–	–
Cc1ccc(Nc2c(-c3ccc(F)cc3)nc3n2CCN(C(=O)[C@H](C)NCc2ccccc2)C3)cc1 [Compound 403]	510	543	–	–
Cc1ccc(Nc2c(-c3ccc(F)cc3)nc3n2CCN(C(=O)[C@@H](N)C2CC2)C3)cc1 [Compound 404]	20	12	–	–
Cc1ccc(Nc2c(-c3ccc(F)c(F)c3)nc3n2CCN(C(=O)[C@H](C)N)C3)cc1 [Compound 406]	60	40	–	–
Cc1ccc(Nc2c(-c3ccc(F)cc3)nc3n2CCN(C(=O)C(C)Nc2ccc(C)cc2)C3)cc1 (centres unmarked) [Compound 407]	710	523	–	–
Cc1ccc(Nc2c(-c3cc(F)ccc3F)nc3n2CCN(C(=O)C(C)(C)N)C3)cc1 [Compound 408]	930	908	–	–
Cc1ccc(Nc2c(-c3ccc(F)cc3)nc3n2CCN(C(=O)CN)C3(C)C)cc1 [Compound 409]	10	6	–	–
CC(C)(N)C(=O)N1CCn2c(nc(-c3ccc(F)cc3)c2Nc2ccc(Cl)c(Cl)c2)C1 [Compound 410]	60	37	–	–
Fc1ccc(-c2nc3n(c2Nc2ccc(Cl)c(Cl)c2)CCNC3)cc1 [Compound 411]	140	106	–	–
CCN(c1ccc(Cl)c(F)c1)c1c(-c2ccc(F)cc2)nc2n1CCNC2 [Compound 413]	180	131	–	–
CN[C@@H](C(=O)N1CCn2c(nc(-c3ccc(F)cc3)c2Nc2ccc(C)cc2)C1)C(C)C [Compound 414]	160	156	–	–
Cc1ccc(Nc2c(-c3ccc(F)cc3)nc3n2CCNC3(C)C)cc1 [Compound 415]	10	13	–	–
CC1(C)NCCn2c1nc(-c1ccc(F)cc1)c2Nc1ccc(Cl)cc1 [Compound 416]	10	16	–	–
CC1(C)c2nc(-c3ccc(F)cc3)c(Nc3ccc(Cl)cc3)n2CCN1C(=O)CN [Compound 417, 2-amino-1-(3-(4-chlorophenylamino)-2-(4-fluorophenyl)-8,8-dimethyl-5,6-dihydroimidazo[1,2-a]pyrazin-7(8H)-yl)ethanone]	10	6	–	–
Cc1ccc(Nc2c(-c3cc(F)ccc3F)nc3n2CCN(C(=O)CN)C3)cc1 [Compound 418]	90	146	–	–
CC1(C)c2nc(-c3ccc(F)cc3)c(Nc3ccc(Cl)c(F)c3)n2CCN1C(=O)CN [Compound 419]	30	24	–	–
CC1(C)NCCn2c1nc(-c1ccc(F)cc1)c2Nc1ccc(Cl)c(F)c1 [Compound 420]	20	28	–	–
CC1(C)NCCn2c1nc(-c1ccc(F)cc1)c2Nc1ccc(F)c(F)c1 [Compound 422]	10	21	–	–
CC1(C)NCCn2c1nc(-c1ccc(F)cc1)c2Nc1ccc(F)c(Cl)c1 [Compound 424]	20	30	–	–
CC1(C)c2nc(-c3ccc(F)cc3)c(Nc3cc(F)c(F)c(F)c3)n2CCN1C(=O)CN [Compound 554]	–	7	–	–
CC1(C)c2nc(-c3ccc(F)cc3)c(Nc3ccc(F)cc3)n2CCN1C(=O)CNC(=O)CCNC(=O)CCc1ccccc1 [Compound 728]	5400	–	1480	–
CC1(C)c2nc(-c3ccc(F)cc3)c(Nc3ccc(F)cc3)n2CCN1C(=O)CNC(=O)CCNC(=O)CCc1ccc2oc3ccccc3c2c1 [Compound 729]	> 10000	–	6290	–
CC1(C)c2nc(-c3ccc(F)cc3)c(Nc3ccc(F)cc3)n2CCN1C(=O)CNCCCNC(=O)CCc1ccccc1 [Compound 730, N-(3-(2-(2-(4-fluorophenyl)-3-(4-fluorophenylamino)-8,8-dimethyl-5,6-dihydroimidazo[1,2-a]pyrazin-7 (8H)-yl)-2-oxoethylamino)propyl)-3-phenylpropanamide]	1360	–	474	–

Structure (SMILES)	EC50 (3D7 P. falciparum strain) [nM]	EC50 (W2 strain [1]) [nM]	EC50 (W2 strain [2]; Plasmodium falciparum) [nM]	EC50 (W2 strain [2]) [nM]
Cc1ccc(Nc2c(-c3cccnc3)nc3n2CCCC3)cc1 [Compound 737]	7850	–	4090	–
CC(C)(C)CC(C)(C)Nc1c(C2CCCCC2)nc2ccccn12 [Compound 738]	3240	–	1560	–
CC(C)(C)CC(C)(C)Nc1c(C(c2ccccc2)c2ccccc2)nc2ccccn12 [Compound 739]	768	–	881	–
CC(C)(C)CC(C)(C)Nc1c(-c2ccccc2-c2cccs2)nc2ccccn12 [Compound 741]	5250	–	4830	–
CC(C)(C)CC(C)(C)Nc1c(-c2ccccc2OC(F)F)nc2ccccn12 [Compound 742]	6430	–	11600	–
CC(C)(C)CC(C)(C)Nc1c(-c2ccccc2Br)nc2ccccn12 [Compound 743]	2680	–	3000	–
CCN(CC)CCOc1ccccc1-c1nc2ccccn2c1NC(C)(C)CC(C)(C)C [Compound 744]	5240	–	2810	–
CC(C)(C)CC(C)(C)Nc1c(-c2ccccc2C(F)(F)F)nc2ccccn12 [Compound 745]	3570	–	4230	–
CC(C)(C)CC(C)(C)Nc1c(-c2ccccc2OCCO)nc2ccccn12 [Compound 746]	> 10000	–	6940	–
CC(C)(C)CC(C)(C)Nc1c(-c2ccccc2-c2ccco2)nc2ccccn12 [Compound 747]	2230	–	4480	–
Cc1ccc(Nc2c(-c3ccc(F)cc3)nc3ccc(C)cn23)cc1 [Compound 748]	3440	–	4150	–
Fc1ccc(-c2nc3n(c2Nc2ccc(Cl)c(F)c2)CCCC3)cc1 [Compound 749]	1050	–	814	–
Cc1ccc(Nc2c(-c3ccc(F)cc3)nc3n2CCCC3)cc1 [Compound 750]	4770	–	4960	–
Cc1ccc(Nc2c(-c3ccc(F)cc3)nc3ccccn23)cc1 [Compound 751]	1790	–	4550	–
Cc1ccc2nc(-c3ccc(F)cc3)c(Nc3ccc(Cl)c(F)c3)n2c1 [Compound 752]	1620	–	2380	–
Cc1ccc(Nc2c(-c3ccc(F)cc3)nc3n2CC(C)CC3)cc1 (centres unmarked) [Compound 753]	376	–	592	–
CC1CCc2nc(-c3ccc(F)cc3)c(Nc3ccc(Cl)c(F)c3)n2C1 (centres unmarked) [Compound 754]	104	–	190	–
NCC(=O)N1CCn2c(nc(-c3ccccc3)c2Nc2ccc3c(c2)OCO3)C1 [Example 1, 2-amino-1-(3-(benzo[d][1,3]dioxol-5-ylamino)-2-phenyl-5,6-dihydroimidazo[1,2-a]pyrazin-7(8H)-yl)ethanone]	460	–	–	473
Fc1ccc(Nc2c(-c3ccc(F)cc3)nc3cnccn23)cc1 [Example 26, N,2-bis(4-fluorophenyl)imidazo[1,2-a]pyrazin-3-amine]	> 10000	–	–	5520
Fc1ccc(Nc2c(-c3ccc(F)cc3)nc3n2CCNC3)cc1 [Example 28, N,2-bis(4-fluorophenyl)-5,6,7,8-tetrahydroimidazo[1,2-a]pyrazin-3-amine]	200	–	–	175
CNCC(=O)N1CCn2c(nc(-c3ccc(F)cc3)c2Nc2ccc(F)cc2)C1 [Example 32, 1-(2-(4-fluorophenyl)-3-(4-fluorophenylamino)-5,6-dihydroimidazo[1,2-a]pyrazin-7(8H)-yl)-2-(methylamino)ethanone]	210	–	–	219
O=C(CO)N1CCn2c(nc(-c3ccc(F)cc3)c2Nc2ccc(F)cc2)C1 [Example 44, 1-(2-(4-fluorophenyl)-3-(4-fluorophenylamino)-5,6-dihydroimidazo[1,2-a]pyrazin-7(8H)-yl)-2-hydroxyethanone]	720	–	–	477
Cc1ccc(Nc2c(-c3ccc(F)cc3)nc3n2CCNC3)cc1 [Example 113, 2-(4-fluorophenyl)-N-p-tolyl-5,6,7,8-tetrahydroimidazo[1,2-a]pyrazin-3-amine]	150	–	–	146
Cc1ccc(Nc2c(-c3ccc(F)cc3)nc3cnccn23)cc1 [Example 136, 2-(4-fluorophenyl)-N-p-tolylimidazo[1,2-a]pyrazin-3-amine]	2020	–	–	2690
Cc1ccc(Nc2c(-c3ccc(F)cc3)nc3n2CCN(C(=O)N2CCC(N(C)C)C2)C3)cc1 (centres unmarked) [Example 251, (3-(dimethylamino)pyrrolidin-1-yl)(2-(4-fluorophenyl)-3-(p-tolylamino)-5,6-dihydroimidazo[1,2-a]pyrazin-7(8H)-yl)methanone]	3680	–	–	2550
Fc1ccc(-c2nc3n(c2Nc2ccc(Cl)cc2)CCNC3)cc1 [Example 262, N-(4-chlorophenyl)-2-(4-fluorophenyl)-5,6,7,8-tetrahydroimidazo[1,2-a]pyrazin-3-mine]	240	–	–	267
Cc1ccc(Nc2c(-c3cccc(C)c3)nc3n2CCNC3)cc1 [Example 266, 2-m-tolyl-N-p-tolyl-5,6,7,8-tetrahydroimidazo[1,2-a]pyrazin-3-amine]	1170	–	–	1310
